What was measured:
Assay in all cases: relative viability (nuclei count vs DMSO), 5 days (fraction); higher = more cells survive
[1] = compound: CC1=C(C(=NN1)C)CC2=C(C3=C(S2)N(C(=O)N(C3=O)C)CC(C)C)C(=O)N4C[C@@H](CO4)O + CC(C)C[C@H](NC(=O)[C@H](Cc1ccccc1)NC(=O)c1cnccn1)B(O)O [Bortezomib] (partner 0.002 µM)
Outline: (§1)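 Relative viability equals treated-well nuclei counts divided by vehicle-well nuclei counts. Counts came from 4× images of lung cancer cell lines grown in 1536-well plates for 5 days after pin-tool dosing on the day after seeding. Dosing used one drug alone or a fixed anchor-drug dose plus five library-drug doses (not always all listed) in √10 steps, and values are medians of duplicate plates.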

[2] = compound: CC1=C(C(=NN1)C)CC2=C(C3=C(S2)N(C(=O)N(C3=O)C)CC(C)C)C(=O)N4C[C@@H](CO4)O + C[C@]1(O)C[C@@H](c2nc(-c3ccc4ccc(-c5ccccc5)nc4c3)c3c(N)nccn32)C1 [Linsitinib] (partner 1 µM)
Outline: as §1

IDH-C35 + Palbociclib = compound: Cc1ccccc1C(C(=O)NC1CCCCC1)N(C(=O)Cn1ccnc1C)c1cccc(F)c1 [IDH-C35] + CC(=O)c1c(C)c2cnc(Nc3ccc(N4CCNCC4)cn3)nc2n(C2CCCC2)c1=O [Palbociclib] (partner 0.5 µM)
Outline: as §1

IDH-C35 + Dasatinib = compound: Cc1ccccc1C(C(=O)NC1CCCCC1)N(C(=O)Cn1ccnc1C)c1cccc(F)c1 [IDH-C35] + Cc1nc(Nc2ncc(C(=O)Nc3c(C)cccc3Cl)s2)cc(N2CCN(CCO)CC2)n1 [Dasatinib] (partner 0.075 µM)
Outline: as §1

Cell Line	relative viability ([1]; first compound 0.0025 µM)	relative viability ([1]; first compound 0.007906 µM)	relative viability ([1]; first compound 0.025 µM)	relative viability ([1]; first compound 0.07906 µM)	relative viability ([1]; first compound 0.25 µM)	relative viability ([2]; first compound 0.0025 µM)	relative viability ([2]; first compound 0.007906 µM)	relative viability ([2]; first compound 0.025 µM)	relative viability ([2]; first compound 0.07906 µM)	relative viability ([2]; first compound 0.25 µM)	relative viability (IDH-C35 + Palbociclib; first compound 0.08 µM)	relative viability (IDH-C35 + Palbociclib; first compound 0.253 µM)	relative viability (IDH-C35 + Palbociclib; first compound 0.8 µM)	relative viability (IDH-C35 + Palbociclib; first compound 2.53 µM)	relative viability (IDH-C35 + Palbociclib; first compound 8 µM)	relative viability (IDH-C35 + Dasatinib; first compound 0.08 µM)	relative viability (IDH-C35 + Dasatinib; first compound 0.253 µM)	relative viability (IDH-C35 + Dasatinib; first compound 0.8 µM)	relative viability (IDH-C35 + Dasatinib; first compound 2.53 µM)	relative viability (IDH-C35 + Dasatinib; first compound 8 µM)
HCC-78	0.526	0.614	0.535	0.543	0.413	0.483	0.548	0.587	0.505	0.377	0.462	0.437	0.439	0.494	0.553	0.361	0.315	0.496	0.325	0.435
HCC-366	1.04	1.1	0.958	1.07	1.13	0.593	0.771	0.59	0.62	0.712	0.374	0.399	0.381	0.38	0.321	0.763	0.67	0.669		0.596
HCC-827	0.923	1.04	0.985	0.913	1.08	1.01	1.01	0.96	0.949	0.963	0.475	0.483	0.397	0.562	0.472	0.328	0.263	0.29	0.32	0.382
HOP-62	0.535	1.03	0.753	0.557	1.07	1.01	0.967	0.889	1	0.817	0.377	0.435	0.426	0.419	0.394	0.712	0.624	0.6	0.638	0.622
LC-2-ad	1.06	1.05	1.15	0.999	1.14	0.848	0.928	0.9	0.869	0.843	0.527	0.476	0.531	0.49	0.494	0.596	0.65	0.568		0.593
LCLC-97TM1	0.657	0.484	0.347	0.637	0.949	0.183	0.206	0.205	0.163	0.159	0.192	0.22	0.213		0.27	0.87	0.796	0.822	0.818	0.809
LCLC-103H	1.11	1.08	1.15	1.04	1.05	1.07	1.15	1.18	0.835	1.12	0.498	0.483	0.532	0.518	0.484	0.485	0.441	0.45	0.423	0.514
LOU-NH91	0.473	0.486	0.546	0.423	0.476	0.958	0.843	1.06	1.12	1.02	0.553	0.558	0.54	0.551	0.519	0.554	0.538	0.558	0.531	0.557
LU99A	1.37	1.21	1.07	1.14	1.2	0.592	0.542	0.522	0.583	0.567	0.38	0.418	0.394	0.398	0.403	0.684	0.552	0.586	0.639	0.542
LXF-289	1	0.972	1	1.02	1.07	1.02	0.919	0.957	0.953	1.04	0.574	0.584	0.591	0.604	0.583	0.276	0.25	0.252	0.221	0.214
NCI-H23	1.07	1.24	0.848	0.964	1.33	0.521	0.548	0.516	0.565	0.777	0.55	0.494	0.43	0.525	0.538	0.779	0.718	0.738	0.901	0.864
NCI-H322M	1.34	1.19	1.33	1.23	1.19	0.92	0.975	0.942	0.899	0.722	0.523	0.48	0.493	0.493	0.49	0.244	0.253	0.26	0.247	0.243
NCI-H441	0.822	0.34	0.626	0.636	0.707	0.59	0.491	0.493	0.53	0.615	0.183	0.238	0.254	0.242	0.224	0.629	0.753	0.536	0.673	0.541
NCI-H460	1.1	1.37	0.984	1.07	1.28	0.736	0.577	0.789	1.09	1.19	0.23	0.231	0.194	0.233	0.12	0.379	0.512	0.49	0.479	0.495
NCI-H520	0.646	0.413	0.192	0.23	0.28	0.87	0.902	0.528	0.409	0.552	0.206	0.268	0.215	0.225	0.23	0.191	0.159	0.202	0.181	0.217
NCI-H647	1.27	1.09	0.802	1.11	1.1	1.33	1.37	1.33	1.24	1.44	0.47	0.433	0.399	0.347	0.397	0.194	0.204	0.198	0.223	0.192

Cell Line	relative viability ([1]; first compound 0.0025 µM)	relative viability ([1]; first compound 0.007906 µM)	relative viability ([1]; first compound 0.025 µM)	relative viability ([1]; first compound 0.07906 µM)	relative viability ([1]; first compound 0.25 µM)	relative viability ([2]; first compound 0.0025 µM)	relative viability ([2]; first compound 0.007906 µM)	relative viability ([2]; first compound 0.025 µM)	relative viability ([2]; first compound 0.07906 µM)	relative viability ([2]; first compound 0.25 µM)	relative viability (IDH-C35 + Palbociclib; first compound 0.08 µM)	relative viability (IDH-C35 + Palbociclib; first compound 0.253 µM)	relative viability (IDH-C35 + Palbociclib; first compound 0.8 µM)	relative viability (IDH-C35 + Palbociclib; first compound 2.53 µM)	relative viability (IDH-C35 + Palbociclib; first compound 8 µM)	relative viability (IDH-C35 + Dasatinib; first compound 0.08 µM)	relative viability (IDH-C35 + Dasatinib; first compound 0.253 µM)	relative viability (IDH-C35 + Dasatinib; first compound 0.8 µM)	relative viability (IDH-C35 + Dasatinib; first compound 2.53 µM)	relative viability (IDH-C35 + Dasatinib; first compound 8 µM)
NCI-H650	1.02	0.714	0.671	0.757	0.825	1.03	0.973	0.63	0.858	0.791	0.311	0.343	0.339		0.283	0.475	0.468	0.462		0.433
NCI-H661	1	1.01	0.692	0.882	0.635	0.593	0.636	0.603	0.762	0.463	0.433	0.407	0.392	0.41	0.384	0.898	0.945	0.868	0.974	0.79
NCI-H727	0.919	0.583	0.694	0.716	0.873	0.233	0.324	0.386	0.259	0.247	0.671	0.663	0.673	0.66	0.574	0.514	0.315	0.366	0.388	0.446
NCI-H838	0.88	1.13	0.786	0.738	0.929	1.02	1.08	0.987	1.02	1.04	0.24	0.223	0.229	0.22	0.211	0.343	0.303	0.298	0.32	0.303
NCI-H1355	1.2	1.28	1.24	1.15	1.23	0.889	0.927	0.867	0.791	0.785	0.438	0.4	0.393	0.427	0.388	0.76	0.727	0.667	0.651	0.742
NCI-H1437	0.669	0.568	0.516	0.441	0.601	1.03	1.21	1.01	1.1	1.08	0.346	0.313	0.284	0.316	0.294	0.442	0.448	0.432	0.314	0.308
NCI-H1651	0.956	1.02	0.889	0.879	0.856	1.03	1.26	0.944	0.908	1.06	0.499	0.505	0.523	0.527	0.545	0.416	0.398	0.426	0.404	0.382
NCI-H1666	0.933	0.874	0.821	0.778	0.81	0.834	0.839	1.06	0.884	0.847	0.678	0.674	0.607	0.682	0.645	0.784	0.807	0.794	0.795	0.728
NCI-H1734	0.946	0.736	0.893	0.835	0.747	0.925	1.05	0.861	0.947	0.881	0.359	0.33	0.352	0.325	0.305	0.469	0.524	0.511	0.458	0.419
NCI-H1755	1.01	0.875	0.962	0.963	1.13	1.05	1.03	0.975	0.957	0.976	0.463	0.412	0.438	0.466	0.401	0.374	0.409	0.433	0.409	0.465
NCI-H1792	0.94	1.01	0.861	0.878	0.786	0.722	0.541	0.487	0.402	0.344	0.711	0.609	0.646	0.679	0.673	0.725	0.728	0.473	0.944	0.815
NCI-H1915	0.987	1.03	0.974	0.827	1.03	1.12	1.13	1.08	1.05	1.17	0.51	0.527	0.506	0.556	0.529	0.328	0.308	0.304	0.326	0.309
NCI-H1975	0.423	0.338	0.42	0.409	0.342	0.956	1.04	1	0.949	1.08	0.642	0.653	0.606	0.67	0.56	0.35	0.42	0.366	0.483	0.346
NCI-H1993	1.19	1.12	1.09	1.01	1.15	0.75	0.678	0.855	0.781	0.74	0.649	0.504	0.654	0.617	0.666	0.654	0.53	0.577	0.559	0.621
NCI-H2009	1.03	1.08	0.975	1.09	1.13	1.24	1.22	1.19	1.27	1.26	0.25	0.28	0.32	0.227	0.147	0.309	0.33	0.341	0.311	0.303
NCI-H2023	1.11	1.11	0.945	0.975	0.963	0.648	0.786	0.696	0.777	0.683	0.398	0.34	0.378	0.384	0.357	0.59	0.549	0.673	0.517	0.559
